The structures appear in SMILES notation. Peptide text beside a SMILES is read from it. * marks the point of attachment. C16 diacid = O=C(O)CCCCCCCCCCCCCCC(=O)*; Stearoyl = CCCCCCCCCCCCCCCCCC(=O)*; Palmitoyl = CCCCCCCCCCCCCCCC(=O)*

These results are taken from patent US11572399B2, “Long-acting GIP peptide analogues” (University of Copenhagen, priority 2017, dated 2023).

Experiment [1] has as its target T1, human GIP receptor (Homo sapiens, UniProt P48546).
T1 construct: host or cells: COS-7, transient transfection (calcium phosphate), cDNA in pCMV-Script
T1 sequence (P48546 22-466): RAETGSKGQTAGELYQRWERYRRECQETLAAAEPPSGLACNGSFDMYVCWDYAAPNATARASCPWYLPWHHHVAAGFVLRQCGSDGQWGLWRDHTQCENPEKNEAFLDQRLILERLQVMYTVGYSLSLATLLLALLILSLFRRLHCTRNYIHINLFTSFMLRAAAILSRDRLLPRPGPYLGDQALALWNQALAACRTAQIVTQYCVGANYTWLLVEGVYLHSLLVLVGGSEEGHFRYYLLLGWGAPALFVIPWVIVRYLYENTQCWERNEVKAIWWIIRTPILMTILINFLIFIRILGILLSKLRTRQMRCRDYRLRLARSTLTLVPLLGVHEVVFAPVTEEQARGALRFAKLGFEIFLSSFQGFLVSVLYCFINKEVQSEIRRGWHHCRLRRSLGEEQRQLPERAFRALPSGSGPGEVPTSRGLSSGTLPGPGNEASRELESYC
The experiment in a line: cAMP accumulation assay, antagonism of a GIP-mediated cAMP response (50-80% of max). The format is cell-based. Conditions: transiently transfected COS-7 cells; Table 1 and text; read-out: cAMP antagonism nM (IC50, antagonistic potency). As for the experimental part:
The day after, the cells were washed twice with Hepes buffered saline (HBS) buffer and incubated with HBS and 1 mM 3-isobutyl-1-methylxanthine (IBMX) for 30 min at 37° C. […] The HitHunter™ cAMP XS assay (DiscoveRx) was carried out according to the manufacturer's instructions.
(Cyclic AMP is a second messenger, typically raised through Gs and lowered through Gi signalling.)

The target in experiment [2] is T1, human GIP receptor. The experiment in a line: cAMP accumulation assay, agonism (ligand alone). The format is cell-based. Conditions: COS-7 cells, Table 1; for cAMP agonism Emax: intrinsic cAMP activity; for Emax: COS-7, intrinsic cAMP activity; for EC50: read-out: cAMP agonism nM (EC50).

With `CC[C@H](C)[C@H](NC(=O)[C@H](CCCCN)NC(=O)[C@H](CC(=O)O)NC(=O)[C@H](CCSC)NC(=O)[C@H](CCCCNC(=O)CCCCCCCCCCCCCCC(=O)O)NC(=O)[C@@H](NC(=O)[C@H](CO)NC(=O)[C@H](Cc1ccc(O)cc1)NC(=O)[C@H](CC(=O)O)NC(=O)[C@H](CO)NC(=O)[C@@H](NC(=O)[C@H](Cc1ccccc1)NC(=O)[C@@H](NC(=O)CNC(=O)[C@@H](N)CCC(=O)O)[C@@H](C)O)[C@@H](C)CC)[C@@H](C)CC)C(=O)N[C@@H](Cc1c[nH]cn1)C(=O)N[C@@H](CCC(N)=O)C(=O)N[C@@H](CCC(N)=O)C(=O)N[C@@H](CC(=O)O)C(=O)N[C@@H](Cc1ccccc1)C(=O)N[C@H](C(=O)N[C@@H](CC(N)=O)C(=O)N[C@@H](Cc1c[nH]c2ccccc12)C(=O)N[C@@H](CC(C)C)C(=O)N[C@@H](CC(C)C)C(=O)N[C@@H](C)C(=O)N[C@@H](CCC(N)=O)C(=O)N[C@@H](CCCCN)C(N)=O)C(C)C` [AT304, [hGIP(3-30)NH2[A13K]-C16diacid/13]] (H-EGTFISDYSIK(C16 diacid)MDKIHQQDFVNWLLAQK-NH2; N-terminus assumed), the IC50 at human GIP receptor [1] was 199 nM. The “cAMP agonism Emax” value on human GIP receptor [2] is recorded as “no ag”.
In the same order, the values of `CC[C@H](C)[C@H](NC(=O)[C@H](CO)NC(=O)[C@H](Cc1ccc(O)cc1)NC(=O)[C@H](CC(=O)O)NC(=O)[C@H](CO)NC(=O)[C@H](CCCCNC(=O)CCCCCCCCCCCCCCC(=O)O)NC(=O)[C@H](Cc1ccccc1)NC(=O)[C@@H](NC(=O)CNC(=O)[C@@H](N)CCC(=O)O)[C@@H](C)O)C(=O)N[C@@H](C)C(=O)N[C@@H](CCSC)C(=O)N[C@@H](CC(=O)O)C(=O)N[C@@H](CCCCN)C(=O)N[C@H](C(=O)N[C@@H](Cc1c[nH]cn1)C(=O)N[C@@H](CCC(N)=O)C(=O)N[C@@H](CCC(N)=O)C(=O)N[C@@H](CC(=O)O)C(=O)N[C@@H](Cc1ccccc1)C(=O)N[C@H](C(=O)N[C@@H](CC(N)=O)C(=O)N[C@@H](Cc1c[nH]c2ccccc12)C(=O)N[C@@H](CC(C)C)C(=O)N[C@@H](CC(C)C)C(=O)N[C@@H](C)C(=O)N[C@@H](CCC(N)=O)C(=O)N[C@@H](CCCCN)C(N)=O)C(C)C)[C@@H](C)CC` [AT298, [hGIP(3-30)NH2[I7K]-C16diacid/7]] are 33 nM and “no ag”.
`CCCCCCCCCCCCCCCC(=O)NCCCC[C@H](NC(=O)[C@@H](NC(=O)[C@H](CCCCN)NC(=O)[C@H](CC(=O)O)NC(=O)[C@H](CCSC)NC(=O)[C@H](C)NC(=O)[C@@H](NC(=O)[C@H](CO)NC(=O)[C@H](Cc1ccc(O)cc1)NC(=O)[C@H](CC(=O)O)NC(=O)[C@H](CO)NC(=O)[C@@H](NC(=O)[C@H](Cc1ccccc1)NC(=O)[C@@H](N)[C@@H](C)O)[C@@H](C)CC)[C@@H](C)CC)[C@@H](C)CC)C(=O)N[C@@H](CCC(N)=O)C(=O)N[C@@H](CCC(N)=O)C(=O)N[C@@H](CC(=O)O)C(=O)N[C@@H](Cc1ccccc1)C(=O)N[C@H](C(=O)N[C@@H](CC(N)=O)C(=O)N[C@@H](Cc1c[nH]c2ccccc12)C(=O)N[C@@H](CC(C)C)C(=O)N[C@@H](CC(C)C)C(=O)N[C@@H](C)C(=O)N[C@@H](CCC(N)=O)C(=O)N[C@@H](CCCCN)C(N)=O)C(C)C` [AT145, [hGIP(5-30)NH2[H18K]-C16/18]] (H-TFISDYSIAMDKIK(Palmitoyl)QQDFVNWLLAQK-NH2; N-terminus assumed): the IC50 on human GIP receptor [1] amounted to 66 nM. Further, on human GIP receptor [2], the Emax is 16% and the EC50 came to 33 nM.
In the same order, the values of `CC[C@H](C)[C@H](NC(=O)[C@H](CO)NC(=O)[C@H](Cc1ccc(O)cc1)NC(=O)[C@H](CC(=O)O)NC(=O)[C@H](CO)NC(=O)[C@@H](NC(=O)[C@H](Cc1ccccc1)NC(=O)[C@@H](NC(=O)CNC(=O)[C@@H](N)CCC(=O)O)[C@@H](C)O)[C@@H](C)CC)C(=O)N[C@@H](C)C(=O)N[C@@H](CCSC)C(=O)N[C@@H](CCCCNC(=O)CCCCCCCCCCCCCCC(=O)O)C(=O)N[C@@H](CCCCN)C(=O)N[C@H](C(=O)N[C@@H](Cc1c[nH]cn1)C(=O)N[C@@H](CCC(N)=O)C(=O)N[C@@H](CCC(N)=O)C(=O)N[C@@H](CC(=O)O)C(=O)N[C@@H](Cc1ccccc1)C(=O)N[C@H](C(=O)N[C@@H](CC(N)=O)C(=O)N[C@@H](Cc1c[nH]c2ccccc12)C(=O)N[C@@H](CC(C)C)C(=O)N[C@@H](CC(C)C)C(=O)N[C@@H](C)C(=O)N[C@@H](CCC(N)=O)C(=O)N[C@@H](CCCCN)C(N)=O)C(C)C)[C@@H](C)CC` [AT306, [hGIP(3-30)NH2[D15K]-C16diacid/15]] (H-EGTFISDYSIAMK(C16 diacid)KIHQQDFVNWLLAQK-NH2; N-terminus assumed) are 53 nM, 6.6% and 13 nM.
As to `CCCCCCCCCCCCCCCCCC(=O)NCCCC[C@H](NC(=O)[C@H](CC(=O)O)NC(=O)[C@H](CCSC)NC(=O)[C@H](C)NC(=O)[C@@H](NC(=O)[C@H](CO)NC(=O)[C@H](Cc1ccc(O)cc1)NC(=O)[C@H](CC(=O)O)NC(=O)[C@H](CO)NC(=O)[C@@H](NC(=O)[C@H](Cc1ccccc1)NC(=O)[C@@H](N)[C@@H](C)O)[C@@H](C)CC)[C@@H](C)CC)C(=O)N[C@H](C(=O)N[C@@H](Cc1c[nH]cn1)C(=O)N[C@@H](CCC(N)=O)C(=O)N[C@@H](CCC(N)=O)C(=O)N[C@@H](CC(=O)O)C(=O)N[C@@H](Cc1ccccc1)C(=O)N[C@H](C(=O)N[C@@H](CC(N)=O)C(=O)N[C@@H](Cc1c[nH]c2ccccc12)C(=O)N[C@@H](CC(C)C)C(=O)N[C@@H](CC(C)C)C(=O)N[C@@H](C)C(=O)N[C@@H](CCC(N)=O)C(=O)N[C@@H](CCCCN)C(N)=O)C(C)C)[C@@H](C)CC` [AT128, [hGIP(5-30)NH2—C18/16]], the IC50 on human GIP receptor [1] worked out at 114 nM. Also, the Emax at human GIP receptor [2] came to 25%.
Consider `CCCCCCCCCCCCCCCCCC(=O)NCCCC[C@H](NC(=O)[C@@H](NC(=O)[C@H](CCCCN)NC(=O)[C@H](CC(=O)O)NC(=O)[C@H](CCSC)NC(=O)[C@H](C)NC(=O)[C@@H](NC(=O)[C@H](CO)NC(=O)[C@H](Cc1ccc(O)cc1)NC(=O)[C@H](CC(=O)O)NC(=O)[C@H](CO)NC(=O)[C@@H](NC(=O)[C@H](Cc1ccccc1)NC(=O)[C@@H](N)[C@@H](C)O)[C@@H](C)CC)[C@@H](C)CC)[C@@H](C)CC)C(=O)N[C@@H](CCC(N)=O)C(=O)N[C@@H](CCC(N)=O)C(=O)N[C@@H](CC(=O)O)C(=O)N[C@@H](Cc1ccccc1)C(=O)N[C@H](C(=O)N[C@@H](CC(N)=O)C(=O)N[C@@H](Cc1c[nH]c2ccccc12)C(=O)N[C@@H](CC(C)C)C(=O)N[C@@H](CC(C)C)C(=O)N[C@@H](C)C(=O)N[C@@H](CCC(N)=O)C(=O)N[C@@H](CCCCN)C(N)=O)C(C)C` [AT161, [hGIP(5-30)NH2[H18K]-C18/18]] (H-TFISDYSIAMDKIK(Stearoyl)QQDFVNWLLAQK-NH2; N-terminus assumed), for which the IC50 at human GIP receptor [1] turned out to be 252 nM. In addition, the Emax at human GIP receptor [2] is 7%.
As to `CCCCCCCCCCCCCCCC(=O)NCCCC[C@H](NC(=O)[C@H](CC(=O)O)NC(=O)[C@H](CCSC)NC(=O)[C@H](C)NC(=O)[C@@H](NC(=O)[C@H](CO)NC(=O)[C@H](Cc1ccc(O)cc1)NC(=O)[C@H](CC(=O)O)NC(=O)[C@H](CO)NC(=O)[C@@H](NC(=O)[C@H](Cc1ccccc1)NC(=O)[C@@H](N)[C@@H](C)O)[C@@H](C)CC)[C@@H](C)CC)C(=O)N[C@H](C(=O)N[C@@H](Cc1c[nH]cn1)C(=O)N[C@@H](CCC(N)=O)C(=O)N[C@@H](CCC(N)=O)C(=O)N[C@@H](CC(=O)O)C(=O)N[C@@H](Cc1ccccc1)C(=O)N[C@H](C(=O)N[C@@H](CC(N)=O)C(=O)N[C@@H](Cc1c[nH]c2ccccc12)C(=O)N[C@@H](CC(C)C)C(=O)N[C@@H](CC(C)C)C(=O)N[C@@H](C)C(=O)N[C@@H](CCC(N)=O)C(=O)N[C@@H](CCCCN)C(N)=O)C(C)C)[C@@H](C)CC` [AT125, [hGIP(5-30)NH2—C16/16]], at human GIP receptor [1], the IC50 was 131 nM. Also, on human GIP receptor [2], the Emax came out at 0%.
For `CC[C@H](C)[C@H](NC(=O)[C@H](CO)NC(=O)[C@H](Cc1ccc(O)cc1)NC(=O)[C@H](CC(=O)O)NC(=O)[C@H](CO)NC(=O)[C@@H](NC(=O)[C@H](CCCCNC(=O)CCCCCCCCCCCCCCC(=O)O)NC(=O)[C@@H](NC(=O)CNC(=O)[C@@H](N)CCC(=O)O)[C@@H](C)O)[C@@H](C)CC)C(=O)N[C@@H](C)C(=O)N[C@@H](CCSC)C(=O)N[C@@H](CC(=O)O)C(=O)N[C@@H](CCCCN)C(=O)N[C@H](C(=O)N[C@@H](Cc1c[nH]cn1)C(=O)N[C@@H](CCC(N)=O)C(=O)N[C@@H](CCC(N)=O)C(=O)N[C@@H](CC(=O)O)C(=O)N[C@@H](Cc1ccccc1)C(=O)N[C@H](C(=O)N[C@@H](CC(N)=O)C(=O)N[C@@H](Cc1c[nH]c2ccccc12)C(=O)N[C@@H](CC(C)C)C(=O)N[C@@H](CC(C)C)C(=O)N[C@@H](C)C(=O)N[C@@H](CCC(N)=O)C(=O)N[C@@H](CCCCN)C(N)=O)C(C)C)[C@@H](C)CC` [AT297, [hGIP(3-30)NH2[F6K]-C16diacid/6]] the same measures were 603 nM and 19%.

By IC50 is commonly meant the midpoint of a concentration-inhibition curve. One may read the Emax as the size of the effect at its maximum, as opposed to the concentration needed. Usually EC50 stands for the concentration giving half of the maximal effect.
